Our source for the IC50 values is patent US12331040B2 (Karyopharm Therapeutics Inc., priority 2013, dated 2025).

Where two headings read alike, the source gives them in different places. A value given as a limit tells only on which side of the number the result lay.

Common to all, as to assay: MTT cell proliferation assay
Holding throughout (assay type): cell-based

The subject of experiment [1] is 3T3 cells. As to conditions: Mus musculus, NIH3T3, approximately 64-72 hours incubation. A digest of the protocol: (§1)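 Cytotoxicity was measured by MTT: OD490 of the solubilized formazan after roughly 4 h with MTT reagent, reported as mean percent inhibition relative to the negative control. Test compounds covered eight concentrations between 1 nM and 30 μM, added to 5,000–10,000 cells per well that had attached overnight.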

Experiment [2] relates to MS751 cells. As to conditions: Homo sapiens, MS751, MS751 cells, approximately 64-72 hours incubation. In a few lines:
as §1

Experiment [3] relates to Z138 cells. As to conditions: Homo sapiens, Z-138, Z138 cells, approximately 64-72 hours incubation. A digest of the protocol:
as §1

The mark [4] stands for this setting: read-out: MTT Assay IC50 MS-751.
The mark [5] stands for this setting: read-out: MTT Assay IC50, MS-751.
[6] abbreviates: read-out: MTT Assay IC50, Z-138.

For orientation: IC50 means the concentration that gives 50% inhibition. Regarding `CC1(F)CCN(C(=O)c2ccc(-c3cc(C(F)(F)F)c4oc(CNC(=O)/C=C/c5ccc(N)nc5)cc4c3)nc2)C1` (single isomer, unassigned) [Compound 654, (E)-3-(6-aminopyridin-3-yl)-N-((5-(5-(3-fluoro-3-methylpyrrolidine-1-carbonyl)pyridin-2-yl)-7-(trifluoromethyl)benzofuran-2-yl)methyl)acrylamide], the IC50 in experiment [1] (read-out: MTT Assay IC50 3T3) is over 10 µM; in experiment [2] (setting [4]), under 0.1 µM; in experiment [3] (read-out: MTT Assay IC50 Z-138) it was under 0.1 µM.
Take `Nc1ccc(/C=C/C(=O)NCc2cc3cc(-c4ccc(C(=O)N5CCC(F)(F)CC5)s4)cc(C(F)(F)F)c3o2)cn1` [Compound 685, (E)-3-(6-aminopyridin-3-yl)-N-((5-(5-(4,4-difluoropiperidine-1-carbonyl)thiophen-2-yl)-7-(trifluoromethyl)benzofuran-2-yl)methyl)acrylamide]: the half-inhibitory concentration (IC50) was over 10 µM in experiment [1] (read-out: MTT Assay IC50, 3T3); 0.1 to 5 µM in experiment [2] (setting [5]); 0.1 to 5 µM in experiment [3] (setting [6]).
Regarding `Nc1ccc(/C=C/C(=O)NCc2cc3cc(-c4ccc(C(=O)N5CCC(F)(F)CC5)cn4)c(F)c(F)c3o2)cn1` [Compound 681, (E)-3-(6-aminopyridin-3-yl)-N-((5-(5-(4,4-difluoropiperidine-1-carbonyl)pyridin-2-yl)-6,7-difluorobenzofuran-2-yl)methyl)acrylamide], the IC50 in experiment [1] (read-out: MTT Assay IC50, 3T3) was over 10 µM; in experiment [2] (setting [5]), over 10 µM; in experiment [3] (setting [6]), 5 to 10 µM.
Consider `Nc1ccc(/C=C/C(=O)NCc2cc3cc(-c4cccc(OC(=O)N5CCOCC5)c4)cc(C(F)(F)F)c3o2)cn1` [Compound 558, (E)-3-(2-((3-(6-aminopyridin-3-yl)acrylamido)methyl)-7-(trifluoromethyl)benzofuran-5-yl)phenyl morpholine-4-carboxylate], for which the IC50 in experiment [1] (read-out: MTT Assay IC50 3T3), in experiment [2] (setting [4]) and in experiment [3] (read-out: MTT Assay IC50 Z-138) was over 10 µM in each case.
Consider `COc1cc(-c2ccc(C(=O)N3CCNCC3)cc2)cc2cc(CNC(=O)/C=C/c3ccc(N)nc3)oc12` [Compound 637, (E)-3-(6-aminopyridin-3-yl)-N-((7-methoxy-5-(4-(piperazine-1-carbonyl)phenyl)benzofuran-2-yl)methyl)acrylamide], for which the values for the half-inhibitory concentration (IC50) in experiment [1] (read-out: MTT Assay IC50 3T3), in experiment [2] (setting [4]) and in experiment [3] (read-out: MTT Assay IC50 Z-138) were over 10 µM, 0.1 to 5 µM and 0.1 to 5 µM, respectively.
Take `Nc1ccc(/C=C/C(=O)NCc2cc3cc(-c4ccc(C(=O)c5ccc(F)cc5)cn4)cc(-c4ccc(F)cc4)c3o2)cn1` [Compound 703, (E)-3-(6-aminopyridin-3-yl)-N-((5-(5-(4-fluorobenzoyl)pyridin-2-yl)-7-(4-fluorophenyl)benzofuran-2-yl)methyl)acrylamide]: the IC50 is 5 to 10 µM in experiment [1] (read-out: MTT Assay IC50, 3T3); 0.1 to 5 µM in experiment [2] (setting [5]); under 0.1 µM in experiment [3] (setting [6]).
`Nc1ccc(/C=C/C(=O)NCc2cc3cc(-c4ncc(C(=O)N5CCOCC5)cn4)cc(Cl)c3o2)cn1` [Compound 583, (E)-3-(6-aminopyridin-3-yl)-N-((7-chloro-5-(5-(morpholine-4-carbonyl)pyrimidin-2-yl)benzofuran-2-yl)methyl)acrylamide]: the results for the IC50 in experiment [1] (read-out: MTT Assay IC50 3T3), in experiment [2] (setting [4]) and in experiment [3] (read-out: MTT Assay IC50 Z-138) were over 10 µM, 0.1 to 5 µM and 0.1 to 5 µM, respectively.
In the case of `CC(=O)c1ccc(-c2ccc3oc(CNC(=O)/C=C/c4ccc(N)nc4)cc3c2)s1` [Compound 503, (E)-N-((5-(5-acetylthiophen-2-yl)benzofuran-2-yl)methyl)-3-(6-aminopyridin-3-yl)acrylamide], the results for the IC50 in experiment [1] (read-out: MTT Assay IC50 3T3), in experiment [2] (setting [4]) and in experiment [3] (read-out: MTT Assay IC50 Z-138) were over 10 µM, 0.1 to 5 µM and over 10 µM, respectively.
Turning to `O=C(/C=C/c1cccnc1)NCc1cc2cc(-c3ccc(C(=O)N4CC5(COC5)C4)cc3)cc(C(F)(F)F)c2o1` [Compound 688, (E)-N-((5-(4-(2-oxa-6-azaspiro[3.3]heptane-6-carbonyl)phenyl)-7-(trifluoromethyl)benzofuran-2-yl)methyl)-3-(pyridin-3-yl)acrylamide], the IC50 in experiment [1] (read-out: MTT Assay IC50, 3T3) is 0.1 to 5 µM; in experiment [2] (setting [5]), 0.1 to 5 µM; in experiment [3] (setting [6]) it was 0.1 to 5 µM.
As to `Nc1ccc(/C=C/C(=O)NCc2cc3cc(-c4ccc(C(=O)N5CCC(F)(F)CC5)cc4)cc(-c4ccc(Cl)cc4)c3o2)cn1` [Compound 742, (E)-3-(6-aminopyridin-3-yl)-N-((7-(4-chlorophenyl)-5-(4-(4,4-difluoropiperidine-1-carbonyl)phenyl)benzofuran-2-yl)methyl)acrylamide], the half-maximal inhibitory concentration (IC50) in experiment [1] (read-out: MTT Assay IC50, 3T3) is over 10 µM; in experiment [2] (setting [5]), 0.1 to 5 µM; in experiment [3] (setting [6]) it was 0.1 to 5 µM.
On to `O=C(/C=C/c1ccc(C(F)(F)F)nc1)NCc1cc2cc(-c3ccc(C(=O)N4CCOCC4)cc3)cc(Cl)c2o1` [Compound 536, (E)-N-((7-Chloro-5-(4-(morpholine-4-carbonyl)phenyl)benzofuran-2-yl)methyl)-3-(6-(trifluoromethyl)pyridin-3-yl)acrylamide], for which the IC50 was over 10 µM in experiment [1] (read-out: MTT Assay IC50 3T3), over 10 µM in experiment [2] (setting [4]) and 5 to 10 µM in experiment [3] (read-out: MTT Assay IC50 Z-138).
Regarding `Nc1ccc(/C=C/C(=O)NCc2cc3cc(-c4ccc(C(=O)N5CCC(F)(F)C5)cc4)cc(C(F)(F)F)c3o2)cn1` [Compound 603, (E)-3-(6-aminopyridin-3-yl)-N-((5-(4-(3,3-difluoropyrrolidine-1-carbonyl)phenyl)-7-(trifluoromethyl)benzofuran-2-yl)methyl)acrylamide], the values for the IC50 in experiment [1] (read-out: MTT Assay IC50 3T3), in experiment [2] (setting [4]) and in experiment [3] (read-out: MTT Assay IC50 Z-138) were over 10 µM, 0.1 to 5 µM and 0.1 to 5 µM, respectively.
On to `Nc1ccc(/C=C/C(=O)NCc2cc3cc(-c4ccc(S(=O)(=O)N5CC(F)(F)C5)cc4)cc(C(F)(F)F)c3o2)cn1` [Compound 644, (E)-3-(6-aminopyridin-3-yl)-N-((5-(4-(3,3-difluoroazetidin-1-ylsulfonyl)phenyl)-7-(trifluoromethyl)benzofuran-2-yl)methyl)acrylamide], for which the IC50 in experiment [1] (read-out: MTT Assay IC50 3T3) is over 10 µM; in experiment [2] (setting [4]) it was 5 to 10 µM; in experiment [3] (read-out: MTT Assay IC50 Z-138) it was 0.1 to 5 µM.
For `Nc1ccc(/C=C/C(=O)NCc2nc3cc(-c4ccc(C(=O)N5CC(F)(F)C5)cc4)cc(Cl)c3o2)cn1` [Compound 509, (E)-3-(6-aminopyridin-3-yl)-N-((7-chloro-5-(4-(3,3-difluoroazetidine-1-carbonyl)phenyl)benzo[d]oxazol-2-yl)methyl)acrylamide] the same measures were over 10 µM, 0.1 to 5 µM and 0.1 to 5 µM.
As for `Cc1ccncc1-c1cc(-c2ccc(C(=O)N3CCC(F)(F)CC3)cc2)cc2cc(CNC(=O)/C=C/c3ccc(N)nc3)oc12` [Compound 744, (E)-3-(6-aminopyridin-3-yl)-N-((5-(4-(4,4-difluoropiperidine-1-carbonyl)phenyl)-7-(4-methylpyridin-3-yl)benzofuran-2-yl)methyl)acrylamide], the half-inhibitory concentration (IC50) in experiment [1] (read-out: MTT Assay IC50, 3T3) was 0.1 to 5 µM; in experiment [2] (setting [5]) it was under 0.1 µM; in experiment [3] (setting [6]), under 0.1 µM.
Turning to `Nc1ccc(/C=C/C(=O)NCc2cc3cc(-c4ccc(C(=O)N5CC6CC(C5)O6)cn4)cc(C(F)(F)F)c3o2)cn1` [Compound 626, (E)-N-((5-(5-(6-oxa-3-azabicyclo[3.1.1]heptane-3-carbonyl)pyridin-2-yl)-7-(trifluoromethyl)benzofuran-2-yl)methyl)-3-(6-aminopyridin-3-yl)acrylamide], the IC50 in experiment [1] (read-out: MTT Assay IC50 3T3) is over 10 µM; in experiment [2] (setting [4]), 0.1 to 5 µM; in experiment [3] (read-out: MTT Assay IC50 Z-138), 0.1 to 5 µM.
